Results on 28 molecules are retold here after ChEMBL document CHEMBL4342516, “Discovery of Membrane-Bound Pyrophosphatase Inhibitors Derived from an Isoxazole Fragment” (ACS Med Chem Lett, 2020).

Assay [1] is described as follows: Inhibition of Thermotoga maritima membrane bound pyrophosphatase at 100 uM using sodium pyrophosphate as substrate preincubated for 5 mins followed by substrate addition and measured after 5 mins by spectrophotometry.
Assay [2] relates to Plasmodium falciparum. Briefly: (§1) Inhibition of Plasmodium falciparum 3D7 pyrophosphatase-VP1 expressed in baculovirus infected insect cells using sodium pyrophosphate as substrate preincubated for 5 mins followed by substrate addition and measured after 10 mins by spectrophotometry.
The subject of the next assay is Thermotoga maritima. The assay is described as follows: Inhibition of Thermotoga maritima membrane bound pyrophosphatase at 100 uM using sodium pyrophosphate as substrate preincubated for 5 mins followed by substrate addition and measured after 5 mins by spectrophotometry relative to control.
Assay [3] can be described thus: as §1.
In assay [4] the test system is Plasmodium falciparum. Briefly: Antiplasmodial activity against Plasmodium falciparum 3D7 infected in human erythrocytes assessed as growth inhibition after 72 hrs by SYBR Gren-I fluorescent dye based method. The format is functional, organism-based. The following applies: 3D7, 72 h.

Calls of active or inactive are those of the source. The calls are words filed in the database; no cut-off is given here.

As usually defined, the IC50 is the concentration that inhibits the measured activity by half. For the molecule `CC(C)(C)c1cc(C(=O)NCC(=O)O)cc(C(C)(C)C)c1`, in assay [1], the IC50 entry is “Not Active”.

As to `CC(C)(C)c1cc(C(=O)Nc2ccc([N+](=O)[O-])cc2)cc(C(C)(C)C)c1`, the IC50 in assay [1] (read-out: IC50) stood at 100 µM. The same measure, in the same setting: for `O=C(Oc1ccccc1Br)c1cnc(-c2ccccc2)s1` the value was 48 µM. In general, inhibition refers to the relative decrease from the control value, in per cent. Turning to `CC(C)(C)c1cc(-c2cc(C(=O)Oc3ccccc3Br)no2)cc(C(C)(C)C)c1`, in assay [1] (read-out: IC50), the IC50 came to 10 µM. Besides, the inhibition entry in the assay on Plasmodium falciparum [2] is “inactive”. Consider `Cc1c(-c2cc(C(=O)O)no2)cnn1C`, for which the IC50 result in assay [1] is reported as “Not Active”. With `O=C(O)c1cc(-c2ccccc2[N+](=O)[O-])on1`, in assay [1] (read-out: IC50), the IC50 stood at 71 µM. Besides, the inhibition with Thermotoga maritima is over 50%. For `CCOC(=O)c1cc(-c2cc(C(C)(C)C)cc(C(C)(C)C)c2)on1`, in assay [1] (read-out: IC50), the IC50 is 72 µM. Still for that read-out and setting: then `CC(C)(C)c1cccc(-c2cc(C(=O)Oc3ccccc3Br)no2)c1`, with 6.7 µM; and `O=C(O)c1csc(-c2ccc([N+](=O)[O-])cc2)n1`, with 80 µM. As to `CCOC(=O)c1ccc(S(=O)(=O)NC2=NC(=O)CS2)cc1`, the IC50 in assay [1] (read-out: IC50) is 120 µM. Further, in the assay with Thermotoga maritima, the inhibition is over 50%.

As for `O=c1[nH]c2ccc(S(=O)(=O)CCO)cc2o1`, the IC50 in assay [1] (read-out: IC50) was determined as 43 µM. Besides, the inhibition in the assay on Thermotoga maritima was over 50%. In the case of `CCOC(=O)c1cc(-c2ccc(OC)c(S(=O)(=O)Nc3cccc4c3OCO4)c2)on1`, in assay [1] (read-out: IC50), the IC50 amounted to 36 µM. The same measure, in the same setting: for `O=C(O)c1cnc(-c2ccccc2)s1` the value was 29 µM; for `Cc1cccc(-c2cc(C(=O)Oc3ccccc3Br)no2)c1`, 6.1 µM. With `CC(C)(C)c1cc(C(=O)Nc2ccccc2Br)cc(C(C)(C)C)c1`, the IC50 in assay [1] (read-out: IC50) worked out at 47 µM.

For `Cc1cc(C)cc(-c2cc(C(=O)Oc3ccccc3Br)no2)c1`, the IC50 came to 6.9 µM in assay [1] (read-out: IC50), 55 µM in assay [3] and 99 µM with Plasmodium falciparum [4]. With `Nc1ccc(S(=O)(=O)N2CCCC2C(=O)O)cc1` (stereo not given), the IC50 in assay [1] (read-out: IC50) worked out at 110 µM. Besides, in the assay with Thermotoga maritima, the inhibition was over 50%. As for `O=C(O)c1cc(-c2ccccc2)n[nH]1`, in assay [1] (read-out: IC50), the IC50 was found to be 130 µM. With `Cc1nc(-c2cc(C(=O)O)no2)cs1`, the IC50 in assay [1] (read-out: IC50) amounted to 17 µM. Consider `O=C(O)c1cc(-c2ccc([N+](=O)[O-])cc2)[nH]n1`, for which the IC50 result in assay [1] is reported as “Not Active”. `CC(C)(C)c1cc(C(=O)NCCCn2ccnc2)cc(C(C)(C)C)c1`: the IC50 in assay [1] (read-out: IC50) was 210 µM. Still for that read-out and setting: for `CC(C)(C)c1cc(C(=O)Nc2ccc(S(N)(=O)=O)cc2)cc(C(C)(C)C)c1` the value was 47 µM. As for `Cc1cc(C)cc(-c2cc(C(=O)Nc3ccccc3Br)no2)c1`, the half-maximal inhibitory concentration (IC50) entry in assay [1] is “Not Active”. For `CC(C)(C)c1cc(C(=O)Nc2nc3ccccc3s2)cc(C(C)(C)C)c1`, the 50% inhibitory concentration (IC50) in assay [1] (read-out: IC50) turned out to be 91 µM. Turning to `CC(C)(C)c1cc(CCC(=O)O)cc(C(C)(C)C)c1`, in assay [1], the 50% inhibitory concentration (IC50) entry was “Not Active”.

Consider `Cc1cc(C)cc(-c2cc(C(=O)Oc3ccccc3)no2)c1`, for which the IC50 in assay [1] (read-out: IC50) is 26 µM.

Regarding `Cc1nc(-c2cc(C(=O)Oc3ccccc3Br)no2)cs1`, the IC50 in assay [1] (read-out: IC50) came to 460 µM. As for `CC(C)(C)c1cc(C(=O)Nc2nccs2)cc(C(C)(C)C)c1`, the IC50 in assay [1] (read-out: IC50) came out at 39 µM.
